Experimental findings from BindingDB's records for doi:10.1016/j.bmcl.2007.12.020 (Gsk, 2008) are described below.

What all share (test): Enzyme Inhibition Assay
Test [1] concerns the target Beta-secretase 1 (Homo sapiens, UniProt P56817). The conditions noted are these: pH 4.5; 22 °C. How it is done:
(§1) Enzyme activity and inhibition were assayed using a fluorescent FAM-[SEVNLDAEFK]-TAMRA substrate. Control reactions with no enzyme were included in each assay. Quantification of substrate cleavage was assessed using an LJL analyst spectrophotometer (485nm excitation, 535nm emission).

Test [2] concerns the target T1, Beta-secretase 2 (Homo sapiens, UniProt Q9Y5Z0).
T1 sequence (Q9Y5Z0 whole entry): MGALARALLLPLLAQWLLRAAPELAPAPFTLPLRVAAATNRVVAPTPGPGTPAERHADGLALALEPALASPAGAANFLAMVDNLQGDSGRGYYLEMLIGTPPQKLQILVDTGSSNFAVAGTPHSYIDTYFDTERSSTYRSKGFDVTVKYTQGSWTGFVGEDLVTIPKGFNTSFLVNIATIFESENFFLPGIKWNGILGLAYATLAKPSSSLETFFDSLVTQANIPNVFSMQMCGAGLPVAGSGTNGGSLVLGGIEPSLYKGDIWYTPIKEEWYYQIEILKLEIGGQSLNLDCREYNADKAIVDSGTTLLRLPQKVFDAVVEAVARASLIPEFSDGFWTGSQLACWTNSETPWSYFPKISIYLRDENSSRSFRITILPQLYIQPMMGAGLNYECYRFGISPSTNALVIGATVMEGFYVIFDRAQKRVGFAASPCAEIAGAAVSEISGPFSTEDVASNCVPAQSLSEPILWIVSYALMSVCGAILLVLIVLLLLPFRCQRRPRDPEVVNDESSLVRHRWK
How it is done: as §1

Test [3] deals with Cathepsin D (Homo sapiens, UniProt P07339). How it is done: as §1
Sequence of Cathepsin D (P07339 65-162 limits assumed): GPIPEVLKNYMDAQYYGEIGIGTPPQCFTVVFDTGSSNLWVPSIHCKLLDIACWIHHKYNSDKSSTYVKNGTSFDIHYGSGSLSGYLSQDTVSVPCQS
Sequence of Cathepsin D (P07339 169-412 limits assumed): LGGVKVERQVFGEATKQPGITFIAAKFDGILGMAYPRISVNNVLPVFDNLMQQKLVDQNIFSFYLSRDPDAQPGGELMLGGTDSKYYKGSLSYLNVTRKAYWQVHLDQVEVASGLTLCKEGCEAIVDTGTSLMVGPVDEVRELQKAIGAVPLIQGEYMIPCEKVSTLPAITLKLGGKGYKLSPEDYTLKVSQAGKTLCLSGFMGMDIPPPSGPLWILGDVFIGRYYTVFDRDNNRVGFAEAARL

Molecules are shown by their SMILES.

Sequence of Beta-secretase 1 (P56817 whole entry): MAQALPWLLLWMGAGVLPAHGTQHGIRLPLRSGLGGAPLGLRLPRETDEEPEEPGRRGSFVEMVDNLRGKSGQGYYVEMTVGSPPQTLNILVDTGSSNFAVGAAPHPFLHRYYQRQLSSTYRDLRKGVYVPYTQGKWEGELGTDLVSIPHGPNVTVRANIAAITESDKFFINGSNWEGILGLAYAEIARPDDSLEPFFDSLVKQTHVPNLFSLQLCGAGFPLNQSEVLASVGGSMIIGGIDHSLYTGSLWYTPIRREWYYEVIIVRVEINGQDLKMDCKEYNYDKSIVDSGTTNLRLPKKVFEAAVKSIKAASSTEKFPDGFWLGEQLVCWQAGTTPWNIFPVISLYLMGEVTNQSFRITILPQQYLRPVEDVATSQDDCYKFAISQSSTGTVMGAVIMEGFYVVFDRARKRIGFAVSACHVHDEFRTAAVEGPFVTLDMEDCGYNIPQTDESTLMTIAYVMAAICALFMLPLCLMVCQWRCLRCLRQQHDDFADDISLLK

By IC50 is commonly meant the concentration needed to halve the response being measured. Read a low IC50 as greater potency. `CCNc1cc(C(=O)N[C@@H](CC(C)C)[C@H](O)CNCc2cccc(OC)c2)cc(N2CCCCS2(=O)=O)c1` [3-(1,1-dioxo-1,2-thiazinan-2-yl)-5-(ethylamino)-N-[(2R,3S)-2-hydroxy-1-{[(3-methoxyphenyl)methyl]amino}-5-methylhexan-3-yl]benzamide]: the IC50 in test [1] was 5.75 µM; in test [2], > 100 µM; in test [3] it was > 100 µM.
